According to patent US7524821B2, “Scaffolded maleimide clusters for multivalent peptide assembly” (priority 2002, dated 2009):
Where two headings read alike, the source gives them in different places.

Key:
HIV-1 = conditions: laboratory-adapted strains and primary isolates / different strains of HIV, cited from earlier work
[1] = Native gel filtration (aggregation); type: physicochemical; conditions: PBS, pH 7.2, 0.5 mM
Text: Accordingly, the tetravalent gp41 peptides 25 and 26, each of which contains 4 strands of the 36-mer HIV-1 gp41 peptide DP178 (T20) were synthesized (FIG. 7). […] In order to ligate the peptide to the maleimide cluster, a cysteine residue was introduced at the C-terminus of the peptide during solid phase peptide synthesis.

[2] = aqueous buffer pH 7.0; cited from earlier work
[3] = Circular dichroism (CD) spectroscopy, α-helix content; type: physicochemical; conditions: based on [θ]222 and proposed formula, 50 mM phosphate buffer pH 7.4
Protocol: FIG. 11. CD spectra of the MVP-1 and DP178. The spectra were recorded with 10 uM of DP178 and 2.5 uM of MVP-1 in a phosphate buffer (50 mM, pH 7.4) at 23° C.
One application of the scaffolds is to induce special conformations of peptides. The circular dichroism (CD) spectra of the synthetic multivalent gp41 peptide (MVP-1) and peptide DP178 were recorded and compared (FIG. 11). It was shown that the multivalent assembling has a significant impact on the peptide conformation, leading to a great increase of the α-helical content for the peptide. […]
Similarly, we measured the circular dichroism (CD) spectra of the cholic acid-based multivalent peptides (36a and 37b). […]
The UV absorbance was run on Beckman DU 640 spectrophotometer. CD's spectrums were measured on Jasco-810 (CD-ORD) spectropolarimeter using quartz cuvette of 1 mm path length. […]
The samples of tetravalent peptide 26, trivalent peptides 36a and 37b, template 3α, 7α, 12α-tri-(6-Amino-3-thia-hexy-oxyl)-24-hydroxyl-5β-cholane 32, and the single peptide DP178 were prepared in a concentration ranging from 2 to 18 μM in 50 mM phosphate buffer (pH 7.4). The exact concentration of each sample was detected by UV spectrometer just prior to CD measurement. […]

Question: For enfuvirtide, which “inhibition of HIV membrane fusion” value (HIV-1) is on record?
Answer: potent and broadly inhibitory activities

Question: And the “inhibition of HIV membrane fusion” value (HIV-1; listed as T20)?
Answer: potently inhibit

Question: And the “aggregation under native gel filtration” value [1]?
Answer: form aggregates

Question: And the “concentration at which monomer/tetramer equilibrium and other aggregation patterns occur” value [2]?
Answer: above 20 μM

Question: What about the “concentration at which peptide is monomeric” value [2] of the same substance?
Answer: below 10 μM

Question: And the “content of α-helix” value [3]?
Answer: 18%
